Source: US12319726B2, “Method for treating CD40-mediated diseases” (CASE WESTERN RESERVE UNIVERSITY, priority 2008, dated 2025)
Where no end group is shown, it is not given here.

Assays:
[1] = test system: retinas subjected to I/R; assay: Model of retinal ischemia/reperfusion (I/R), intravitreal peptide; assay type: in vivo, B6 mice
Protocol: FIGS. 20(A-C) illustrate images and graphs showing ri CD40-TRAF2,3 blocking peptide protects against loss of ganglion cells and leukocyte infiltration in retinas subjected to I/R. One eye from each B6 and CD40^−/− mouse was subjected to I/R. Contralateral non-ischemic eye was used as control. Eyes subjected to I/R in B6 mice were treated intravitreously with or without ri control peptide, ri CD40-TRAF2,3 blocking peptide (both 1 μg) 30 min prior to increase in IOP. Eyes were collected 2 d after I/R. A marked decrease in the number of ganglion cells is observed in ischemic eyes from B6 treated with ri control peptide or vehicle (original magnification ×400). […] Arrowhead plus asterix identifies a PMN magnified in the inset (original magnification ×600). Scale bar, 50 μm. Number of ganglion cells per mm. Number of infiltrating leukocytes in the inner retina and vitreous per section. GCL=Ganglion cell layer; IPL=Inner plexiform layer; INL=Inner nuclear layer. OPL=Outer plexiform layer; ONL=Outer nuclear layer. Data shown represent Mean±SEM (9 mice per group). *P<0.05; **P<0.01; […].
FIG. 21 illustrates graphs showing ri CD40-TRAF2,3 blocking peptide impairs upregulation of NOS2 and COX-2 in retinas subjected to I/R. One eye of each mouse was treated as above and subjected to I/R. Eyes were collected after 2 d. mRNA levels of NOS2 and COX-2 were assessed by quantitative real time PCR. One non-ischemic eye from a B6 mouse was given an arbitrary value of 1 and data are expressed as fold-increase compared to this animal. Data shown represent Mean±SEM (7-9 mice per group). ***P<0.001.
FIGS. 22(A-B) illustrate graphs and images showing ri CD40-TRAF2,3 blocking peptide impairs upregulation of ICAM-1 and KC/CXCL1 in retinal endothelial cells from retinas subjected to I/R. One eye of each mouse was subjected to I/R. Eyes were collected after 2 d. mRNA levels of ICAM-1 and KC/CXCL1 were assessed by quantitative real time PCR. One non-ischemic eye from a B6 mouse was given an arbitrary value of 1 and data are expressed as fold-increase compared to this animal. Data shown represent Mean±SEM (7-9 mice per group). ***P<0.001. Retinal sections were incubated with Tomato Lectin (labels endothelial cells) plus either anti-ICAM-1 or anti-KC/CXCL1 Ab. Original magnification ×600. GCL=Ganglion cell layer; IPL=Inner plexiform layer; INL=Inner nuclear layer. Scale bar, 10 μm. 6 mice/group.
FIG. 23 illustrates images showing ri CD40-TRAF2,3 blocking peptide impairs NOS2 and KC/CXCL1 upregulation in Müller cells from retinas subjected to I/R. Eyes from B6 mice were treated with control peptide or CD40-TRAF2,3 blocking peptide, subjected to I/R and collected after 2 d. Retinal sections were incubated with anti-Vimentin Ab (labels Müller cells) plus either anti-NOS2 or anti-KC/CXCL1 Ab. Protein expression at the level of Müller cells stalks. […]. Original magnification ×600. Scale bar, 10 μm. 6 mice/group.
FIGS. 24(A-D) illustrate images and graphs showing ri CD40-TRAF2,3 blocking peptide protects against loss of ganglion neurons and inflammation when administered after retinal I/R. One eye from each B6 mouse was subjected to I/R. Non-ischemic eyes were used as controls. Eyes that were subjected to I/R received either ri control peptide or ri CD40-TRAF2,3 blocking peptide 90 min after increase in IOP. Eyes were collected 2 d after I/R. Administration of the blocking peptide protects against ganglion cell loss and infiltration by leukocytes (arrowhead). Original magnification ×400. Scale bar, 50 μm. Number of ganglion cells per mm. Number of leukocytes in the inner retina and vitreous per section. mRNA levels of ICAM-1, KC/CXCL1, NOS2 and COX-2 were assessed by quantitative real time PCR as above. Data shown represent Mean±SEM (7-9 mice per group). **P<0.01; ***P<0.001. GCL=Ganglion cell layer; IPL=Inner plexiform layer; INL=Inner nuclear layer. […]

[2] = test system: human Müller cells; assay type: cell-based
Text: (§1) Peptide consisted of the TRAF2,3 binding site of CD40 that was made cell permeable by linking them to the TAT47-57 cell penetrating peptide. Peptides were synthesized using D-amino acids following reverse amino acid sequence (ri format). The sequences for the CD40-TRAF2,3 blocking peptide was —NH2-rrrqrrkkrgy ghlteqvhaatn-OH (SEQ ID NO: 49). The TAT47-57 sequence is underlined. The peptide contains a proline (p) to histidine (h) substitution (shown in italics) that enhances affinity to TRAF2. Control (scrambled) peptide consisted of NH2-rrrqrrkkrgy ntqalahtgevh-OH (SEQ ID NO: 50). The blocking peptide was also synthesized with Alexa Fluor 488 conjugated via maleimide coupling to an additional Cys in the N terminus. Peptides were manufactured by Biopeptide Co. (San Diego, CA) and were low in endotoxin and >98% pure by HPLC. Peptides were used at 1 μM in vitro experiments and 1 μg for in vivo studies unless otherwise stated. Peptides were not toxic to human Müller and retinal endothelial cells as assessed by alamarBlue cell viability assay (Invitrogen Corporation).
(§2) Primary human retinal endothelial cells were obtained as described (9) and cultured in complete medium supplemented with endothelial cell growth supplement from bovine pituitary (15 μg/ml; Sigma Chemical, St Louis, MO) and insulin/transferrin/selenium (Sigma Chemical). Cell identity was confirmed by incorporation of acetylated low-density lipoprotein (>90%). Endothelial cells were used between passages 3 to 6. The human Müller cell line MIO M1 (gift from Dr. Gloria Limb; University College London, UK; >95% vimentin^+, CRALBP^+ and GFAP^−) was also used. Endothelial cells were incubated with multimeric human CD154 to induce CD40 stimulation (obtained from Dr. Richard Kornbluth, Multimeric Biotherapeutics Inc., La Jolla, CA) or with a non-functional CD154 mutant (T147N) as control.
(§3) Peptides were tested as described using the mouse endothelial cells mHEVc that expresses a chimera of the extracellular domain of human CD40 and intracytoplasmic domain of mouse CD40 (hmCD40) with either a mutation that prevents recruitment of TRAF2,3 (hmCD40 ΔT2,3) or TRAF6 (hmCD40 ΔT6). These cells were transfected with pGL4.32luc2P/NF-κB-RE/Hygro vector (Promega Corporation, Madison, WI) encoding an NF-κB response element that drives the luciferase reporter gene luc2P (Photinus pyralis). Cells were pre-incubated with peptides for 3 hr. followed by stimulation with human CD154. Luciferase activity was assessed using a Steady-Glo luciferase assay system (Promega Corporation) and a luminometer. The effects of peptides on cell viability were examined using alamarBlue cell viability assay.

[3] = test system: human retinal endothelial cells; assay type: cell-based
Text: as §1, §2, §3

[4] = test system: HAEC; assay: Viability of HAEC incubated with cell-permeable peptides; assay type: cell-based, human; details: first generation cell-permeable peptides
Text: We used peptides that consisted of the amino acid sequence of the TRAF2,3 or the TRAF6 binding sites of CD40 fused a protein transduction domain derived from the Kaposi fibroblast growth factor to make the peptides cell-permeable, (SEQ ID NO: 1 or SEQ ID NO: 2, respectively). […] Thus, the results obtained with the blocking peptides were similar to those obtained with CD40 mutants.

[5] = test system: Human aortic endothelial cells (HAEC); assay: CD154-induced VCAM-1 upregulation in HAEC transduced with wild-type CD40 (FACS); assay type: cell-based; details: second generation peptides (Tat MTD), 100 nM, p<0.02
Protocol: FIGS. 2A-D are a series of graphs showing the induction of VCAM-1 (FIG. 2A), ICAM-1 (FIG. 2B), MCP-1 (FIG. 2C), and tissue factor (FIG. 2D) expression by TRAFs. Human aortic endothelial cells (HAEC) transduced with empty EGFP-encoding retroviral vector (MIEG3) or retroviral vector that encoded either wild type CD40 (wt CD40), CD40 with a mutation that prevents recruitment of TRAF2 and 3 (ΔT2, 3), recruitment of TRAF6 (ΔT6), or recruitment of TRAF2, 3, and 6 (ΔT2, 3, and 6) were incubated with or without CD154. VCAM-1, ICAM-1, and tissue factor were assessed by FACS on transduced (EGFP+) cells. cMFI=corrected Mean Fluorescence Intensity. MCP-1 was measured by ELISA (N=3).
FIGS. 3A-B are a series of graphs showing the effects cell-permeable polypeptides that block CD40-TRAF interactions (T2,3BP and T6BP) on upregulation of VCAM-1 and MCP-1 in HAEC. HAEC were transduced with retroviral vectors encoding wild-type CD40 and incubated with or without CD154. HAEC were pre-treated with either control, TRAF2,3 blocking peptide (T2,3BP), or TRAF6 blocking peptide (T6BP) (200 μM) (N=2).
FIG. 5 is a graph showing the effects of second generation TRAF2, 3 blocking peptide on VCAM-1 upregulation in HAEC.
CD40 activates a variety of signaling cascades. […] Next, we determined if preventing the function of the TRAF2,3 binding site affects adhesion molecule upregulation. […]

[6] = 1 μg intravitreal prior to I/R, 2 d, real time PCR
[7] = prior to I/R, 2 d, immunohistochemistry

CC(C)C[C@@H](NC(=O)[C@@H](C)NC(=O)[C@@H](CCC(N)=O)NC(=O)[C@H](NC(=O)[C@@H](CC(N)=O)NC(=O)[C@@H](Cc1ccc(O)cc1)NC(=O)CNC(=O)[C@@H](CCCNC(=N)N)NC(=O)[C@@H](CCCCN)NC(=O)[C@@H](CCCCN)NC(=O)[C@@H](CCCNC(=N)N)NC(=O)[C@@H](CCCNC(=N)N)NC(=O)[C@@H](CCC(N)=O)NC(=O)[C@@H](CCCNC(=N)N)NC(=O)[C@@H](CCCNC(=N)N)NC(=O)[C@H](N)CCCNC(=N)N)[C@H](C)O)C(=O)N[C@H](C)C(=O)N[C@H](Cc1c[nH]cn1)C(=O)N[C@@H](C(=O)NCC(=O)N[C@H](CCC(=O)O)C(=O)N[C@@H](C(=O)N[C@H](Cc1c[nH]cn1)C(=O)O)C(C)C)[C@H](C)O [ri control peptide, NH2-rrrqrrkkrgy ntqalahtgevh-OH, reference compound]
COX-2 mRNA levels in retina [1, 6]: upregulated | ICAM-1 mRNA levels in retina [1, 6]: marked upregulation | KC/CXCL1 mRNA levels in retina [1, 6]: marked upregulation | NOS2 mRNA levels in retina [1, 6]: upregulated | PMN infiltration in the inner retina and vitreous ([1]; 1 μg intravitreal prior to I/R, 2 d after I/R): developed PMN infiltration | loss of ganglion cells ([1]; 1 μg intravitreal prior to I/R, eyes collected 2 d after I/R): not altered | expression of ICAM-1 in retinal endothelial cells [1, 7]: increased | expression of KC/CXCL1 in Müller cells [1, 7]: increased KC/CXCL1 expression | expression of KC/CXCL1 in retinal endothelial cells [1, 7]: increased | expression of NOS2 in Müller cells [1, 7]: NOS2 upregulation | toxicity (alamarBlue cell viability assay) [2]: not toxic | toxicity (alamarBlue cell viability assay) [3]: not toxic

AAVALLPAVLLALLAPAPHPKQEPQEIDFPDD [SEQ ID NO: 2, AAVALLPAVLLALLAP APHPKQEPQEIDFPDD]
viability of HAEC [4]: did not affect viability

AAVALLPAVLLALLAPSNTAAPVQETLHG [SEQ ID NO: 1, AAVALLPAVLLALLAP SNTAAPVQETLHG]
viability of HAEC [4]: did not affect viability

KQEPQEIDFPDD YGRKKRRQRRR [SEQ ID NO: 18]
inhibition of upregulation of VCAM-1 triggered by CD154 [5]: 60%

NTAAHVQETLHG YGRKKRRQRRR [SEQ ID NO: 13]
inhibition of upregulation of VCAM-1 triggered by CD154 [5]: 60%
